Test results as given in US12448369B2 (Edgewise Therapeutics, Inc., priority 2023, dated 2025).

Tests used:
[1] = target: T1, Porcine ventricle myofibrils (ventricular myosin ATPase) (Sus scrofa, UniProt P79293); experiment: Myofibril ATPase assay, porcine ventricle myofibrils; type: biochemical, porcine (Yucatan minipigs); details: porcine ventricle myofibrils
T1 construct: Myofibrils from porcine cardiac muscle was isolated from the left ventricle of Yucatan minipigs; tissue Exemplar Genetics; host or cells: left ventricle of Yucatan minipigs, myofibrils prepared in house
Method in brief: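 ATPase activity of porcine left-ventricular myofibrils is tracked as the slope of NADH loss at 340 nm through a PK/LDH couple. Values are the concentrations that bring activity to 75% (inhibitors) or 125% (activators) of vehicle.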

[2] = tested on: Porcine atria myofibrils (atrial myosin ATPase); experiment: Myofibril ATPase assay, porcine atria myofibrils; type: biochemical; details: porcine atria myofibrils
Method in brief: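 Porcine atrial myofibrils were tested in a PK/LDH-coupled system where ADP from myosin ATPase drives NADH oxidation. Absorbance at 340 nm was read every 1.5-2 min for 75 min and slopes were normalized to vehicle wells. A 4-parameter logistic fit gave Y75 (25% inhibition) or Y125 (activation) concentrations.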

[3] = tested on: Rabbit Psoas myofibrils (skeletal myosin ATPase); experiment: Myofibril ATPase assay, rabbit psoas (skeletal) myofibrils; type: biochemical; details: rabbit psoas myofibrils
Method in brief: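 ATPase activity of Triton-washed myofibrils was measured by PK/LDH coupling, following NADH loss at 340 nm every 1.5–2 min for 75 min in PIPES/Ca/EGTA buffer at pH 7.0. Slopes, normalized to vehicle (100%), were fitted to a 4-parameter logistic model. Values are Y75 (25% inhibition) or Y125 (activators).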

[4] = Y75 value (75% activity relative to no compound)

T1 sequence (P79293 whole entry): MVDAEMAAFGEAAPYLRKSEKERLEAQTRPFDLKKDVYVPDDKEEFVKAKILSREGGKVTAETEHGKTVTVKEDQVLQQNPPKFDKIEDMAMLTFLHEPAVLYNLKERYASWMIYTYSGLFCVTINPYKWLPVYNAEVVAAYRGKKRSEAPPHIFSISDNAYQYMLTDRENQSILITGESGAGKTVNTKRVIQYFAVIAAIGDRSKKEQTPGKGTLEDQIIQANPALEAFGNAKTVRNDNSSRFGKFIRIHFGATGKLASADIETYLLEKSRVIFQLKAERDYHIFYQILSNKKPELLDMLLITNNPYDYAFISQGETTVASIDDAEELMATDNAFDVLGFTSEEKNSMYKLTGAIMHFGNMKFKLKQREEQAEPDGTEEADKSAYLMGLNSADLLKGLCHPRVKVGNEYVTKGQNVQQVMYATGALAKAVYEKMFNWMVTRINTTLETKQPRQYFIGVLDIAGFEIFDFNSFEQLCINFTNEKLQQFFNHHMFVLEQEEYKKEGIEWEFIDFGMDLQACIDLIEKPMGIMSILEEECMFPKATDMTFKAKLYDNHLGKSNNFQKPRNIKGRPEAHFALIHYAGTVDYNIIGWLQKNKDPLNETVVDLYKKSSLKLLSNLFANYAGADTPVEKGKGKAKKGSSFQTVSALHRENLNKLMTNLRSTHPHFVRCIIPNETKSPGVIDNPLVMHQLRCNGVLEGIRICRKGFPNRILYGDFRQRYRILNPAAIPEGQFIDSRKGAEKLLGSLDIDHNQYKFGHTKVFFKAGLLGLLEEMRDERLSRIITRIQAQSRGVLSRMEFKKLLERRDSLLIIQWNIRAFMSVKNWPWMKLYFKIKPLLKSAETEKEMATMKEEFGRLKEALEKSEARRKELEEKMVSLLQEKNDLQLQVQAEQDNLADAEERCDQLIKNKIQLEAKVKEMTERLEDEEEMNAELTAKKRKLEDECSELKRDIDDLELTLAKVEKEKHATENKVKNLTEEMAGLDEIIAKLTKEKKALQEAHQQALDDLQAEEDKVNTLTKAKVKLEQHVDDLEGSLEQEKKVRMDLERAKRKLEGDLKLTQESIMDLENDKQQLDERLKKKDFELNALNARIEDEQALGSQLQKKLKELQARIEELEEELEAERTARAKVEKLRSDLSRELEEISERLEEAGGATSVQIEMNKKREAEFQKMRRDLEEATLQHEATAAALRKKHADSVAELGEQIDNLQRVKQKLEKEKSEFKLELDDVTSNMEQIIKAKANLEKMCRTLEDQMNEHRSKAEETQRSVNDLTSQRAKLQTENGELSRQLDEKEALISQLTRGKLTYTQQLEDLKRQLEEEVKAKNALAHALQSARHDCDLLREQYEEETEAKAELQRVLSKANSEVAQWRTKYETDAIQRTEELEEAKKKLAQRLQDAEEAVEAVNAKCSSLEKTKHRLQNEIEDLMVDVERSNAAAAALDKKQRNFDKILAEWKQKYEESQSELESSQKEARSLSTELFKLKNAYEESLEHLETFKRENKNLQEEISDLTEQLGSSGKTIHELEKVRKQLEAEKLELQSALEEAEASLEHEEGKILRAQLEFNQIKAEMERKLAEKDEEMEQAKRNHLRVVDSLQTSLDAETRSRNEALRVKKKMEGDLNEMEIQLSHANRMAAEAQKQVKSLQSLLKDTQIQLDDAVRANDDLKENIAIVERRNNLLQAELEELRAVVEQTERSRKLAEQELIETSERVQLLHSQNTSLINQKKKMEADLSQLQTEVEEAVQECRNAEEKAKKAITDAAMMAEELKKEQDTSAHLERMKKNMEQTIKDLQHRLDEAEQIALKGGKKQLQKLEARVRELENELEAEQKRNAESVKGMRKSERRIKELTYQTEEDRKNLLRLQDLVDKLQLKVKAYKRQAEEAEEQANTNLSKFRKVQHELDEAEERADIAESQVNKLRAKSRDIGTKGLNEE

SMILES | Ventricular EC25 ([1]; Y75 value) [µM] | Atrial EC25 [2, 4] [µM] | Skeletal EC25 ([3]; Y75 value) [µM] | Ventricular EC25 ([1]; Y75 value (no ‡ mark)) [µM] | Atrial EC25 ([2]; Y75 value (no ‡ mark)) [µM] | Skeletal EC25 ([3]; Y75 value (no ‡ mark)) [µM]
Cc1nccc2[nH]c(=O)c(CC(=O)N[C@@H]3COc4cccnc43)c(C)c12 (single isomer, unassigned) [compound 251] | 100.00 | 100.00 | 100.00 | – | – | –
Cc1nc(C#N)ccc1[C@H](C)NC(=O)Cc1c(C)c2c(C)c(F)ccc2[nH]c1=O (single isomer, unassigned) [compound 2079] | – | – | – | 0.07 | 0.13 | 0.03
Cc1c(CC(=O)N[C@H](C)c2ccc(C#N)cc2F)c(=O)[nH]c2ccnc(OC3CC3)c12 [compound 201] | 100.00 | 100.00 | 1.02 | – | – | –
Cc1c(CC(=O)N[C@@H](C)c2ccc(F)cc2F)c(=O)[nH]c2ccnc(Cl)c12 [compound 402] | 0.19 | 0.04 | 0.02 | – | – | –
COC[C@H](NC(=O)Cc1c(C)c2c(C#N)nccc2[nH]c1=O)c1ccc(C#N)cc1F [compound 170] | 1.02 | 0.08 | 0.03 | – | – | –
C[C@H](NC(=O)Cc1c(C(F)(F)F)c2c(C3CC3)nccc2[nH]c1=O)c1ccc(C#N)nn1 (single isomer, unassigned) [compound 3004] | 100.00 | 10.04 | 5.99 | – | – | –
Cc1c(CC(=O)N[C@H](CO)c2ccc(C#N)cc2F)c(=O)[nH]c2ccc(F)c(C3CC3)c12 [compound 71] | – | – | – | 8.50 | 1.10 | 0.23
Cc1c(CC(=O)N[C@@H](C)c2ccc(F)cc2F)c(=O)[nH]c2ccc(F)c(F)c12 [compound 116] | – | – | – | 0.13 | 0.04 | 0.02
C[C@H](NC(=O)Cc1c(C(F)F)c2cnccc2[nH]c1=O)c1ccc(F)cc1F [compound 438] | 7.68 | 2.35 | 0.60 | – | – | –
Cc1c(CC(=O)N[C@@H](C)c2cnc(C#N)cn2)c(=O)[nH]c2ccc(F)cc12 [compound 1109] | – | – | – | 0.36 | 0.16 | 0.05
C[C@H](NC(=O)[C@@H](C)c1c(C(F)(F)F)c2cnccc2[nH]c1=O)c1ccc(F)cc1F (single isomer, unassigned) [compound 426] | 66.84 | 4.84 | 12.74 | – | – | –
Cc1c(C(F)(F)C(=O)N[C@@H]2CCc3cc(C#N)cnc32)c(=O)[nH]c2ccc(F)cc12 (single isomer, unassigned) [compound 2515] | – | – | – | 100.00 | 5.06 | 100.00
COc1cccc([C@@H](C)NC(=O)Cc2c(C)c3c(C)nccc3[nH]c2=O)c1 (single isomer, unassigned) [compound 314] | 100.00 | 100.00 | 100.00 | – | – | –
Cc1c(CC(=O)N[C@@H](C)c2ncc(C#N)cn2)c(=O)[nH]c2ccc(F)c(Cl)c12 (single isomer, unassigned) [compound 2056] | – | – | – | 0.29 | 0.11 | 0.06
Cc1c(CC(=O)N[C@H](C)c2ccc(C#N)cc2F)c(=O)[nH]c2ccc(F)c(C#N)c12 [compound 67] | – | – | – | 0.26 | 0.11 | 0.03
